Molecular target: T1, Full length human recombinant HDAC6 protein (Homo sapiens, UniProt Q9UBN7)
T1 sequence (Q9UBN7 1-1215): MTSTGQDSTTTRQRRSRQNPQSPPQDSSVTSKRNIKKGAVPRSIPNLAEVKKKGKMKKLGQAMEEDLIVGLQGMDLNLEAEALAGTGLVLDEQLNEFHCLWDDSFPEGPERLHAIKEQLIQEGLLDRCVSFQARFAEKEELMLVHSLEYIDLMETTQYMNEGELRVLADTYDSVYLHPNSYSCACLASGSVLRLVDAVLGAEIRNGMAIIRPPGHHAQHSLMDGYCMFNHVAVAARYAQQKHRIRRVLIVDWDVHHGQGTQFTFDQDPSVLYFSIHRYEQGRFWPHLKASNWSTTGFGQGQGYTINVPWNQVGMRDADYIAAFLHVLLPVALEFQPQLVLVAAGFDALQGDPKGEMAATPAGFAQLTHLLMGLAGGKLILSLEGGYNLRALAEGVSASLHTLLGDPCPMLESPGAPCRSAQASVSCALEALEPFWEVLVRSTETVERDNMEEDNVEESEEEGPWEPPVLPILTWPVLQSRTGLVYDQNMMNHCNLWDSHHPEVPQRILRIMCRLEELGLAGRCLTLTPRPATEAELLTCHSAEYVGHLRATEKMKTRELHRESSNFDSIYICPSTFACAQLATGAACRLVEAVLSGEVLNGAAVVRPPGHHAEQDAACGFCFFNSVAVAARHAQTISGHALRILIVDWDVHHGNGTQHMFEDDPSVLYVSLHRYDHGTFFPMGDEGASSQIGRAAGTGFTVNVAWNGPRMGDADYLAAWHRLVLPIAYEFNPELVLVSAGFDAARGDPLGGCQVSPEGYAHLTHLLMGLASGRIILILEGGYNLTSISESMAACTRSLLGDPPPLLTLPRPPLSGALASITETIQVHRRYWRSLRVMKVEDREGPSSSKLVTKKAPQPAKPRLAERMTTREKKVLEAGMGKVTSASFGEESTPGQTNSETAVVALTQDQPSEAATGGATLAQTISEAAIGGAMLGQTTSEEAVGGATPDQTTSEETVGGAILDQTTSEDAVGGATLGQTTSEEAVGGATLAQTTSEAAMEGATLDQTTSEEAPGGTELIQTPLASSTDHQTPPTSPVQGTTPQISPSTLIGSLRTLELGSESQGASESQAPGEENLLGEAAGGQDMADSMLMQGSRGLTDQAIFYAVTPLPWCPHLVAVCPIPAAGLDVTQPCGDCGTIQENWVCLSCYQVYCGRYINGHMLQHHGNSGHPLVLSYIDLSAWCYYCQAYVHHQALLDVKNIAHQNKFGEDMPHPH
Assay: In vitro histone deacetylase assay: enzymatic HDAC6 electrophoretic mobility shift assay
Type: biochemical
Details: 1 nM enzyme, 2 μM peptide substrate RHKK(Ac)-NH2, 25° C., 12 concentrations; read-out: Inhibitory Concentration (IC50) Values against HDAC6, Activity Range
Method: The enzymatic HDAC6 assay was performed using electrophoretic mobility shift assay. […] The enzymatic reactions were assembled in 384 well plates in a total volume of 25 μL in a reaction buffer composing: 100 mM HEPES, pH7.5, 25 mM KCl, 0.1% bovine serum albumin, 0.01% Triton X-100, 1% DMSO (from compounds) 2 μM of the fluorescently labeled peptide substrate and enzyme. The enzyme was added at a final concentration of 1 nM. The peptide substrate RHKK(Ac)—NH2 was used. The compounds were tested at 12 concentrations spaced by 3× dilution intervals. Negative control samples ([…] in the absence of inhibitor) and positive control samples (100%-inhibition) were assembled in replicates of four in each assay plate. The reactions were incubated at 25° C. and quenched by the addition of 45 μL of termination buffer (100 mM HEPES, pH 7.5, 0.01% Triton X-100, 0.05% SDS).
The terminated assay plates were analyzed on LabChip® 3000 microfluidic electrophoresis instrument (Perkin Elmer/Caliper Life Sciences). The fluorescence intensity of the electrophoretically separated de-acetylated product and substrate peptide was measured. Activity in each sample was determined as the product to sum ratio (PSR): P/(S+P), where P is the peak height of the product peptide and S is the peak height of the substrate peptide. Percent inhibition (Pinh) is determined using the following equation:
Pinh=(PSR0%−PSRinh)/(PSR0%−PSR100%)*100, where PSRinh is the product sum ratio in the presence of inhibitor, PSR0% is the average product sum ration in the absence of inhibitor and PSR100% is the average product sum ratio in 100%-inhibition control samples. The IC50 values of inhibitors were determined by fitting the %-inhibition curves with 4 parameter dose-response model using XLfit 4 software.

IC50 [nM] | SMILES
≤ 100 | CC(C)(C(=O)N1CCOc2cc(C(=O)NO)ccc2C1)n1cc(Cl)cn1 [4-(2-(4-chloro-1H-pyrazol-1-yl)-2-methylpropanoyl)-N-hydroxy-2,3,4,5-tetrahydrobenzo[f][1,4]oxazepine-8-carboxamide]
100 to 500 | CC(C)(C(=O)N1CCOc2cc(C(=O)NO)ccc2C1)c1ccc(F)cc1 [4-(2-(4-fluorophenyl)-2-methylpropanoyl)-N-hydroxy-2,3,4,5-tetrahydrobenzo[f][1,4]oxazepine-8-carboxamide]
100 to 500 | CC(C(=O)N1CCOc2cc(C(=O)NO)ccc2C1)c1ccc(F)cc1 (stereo not shown) [4-(2-(4-fluorophenyl)propanoyl)-N-hydroxy-2,3,4,5-tetrahydrobenzo[f][1,4]oxazepine-8-carboxamide]
100 to 500 | CC(C)(C(=O)N1CCOc2cc(C(=O)NO)ccc2C1)c1ccc(-c2ccccc2)cc1 [4-(2-([1,1′-biphenyl]-4-yl)-2-methylpropanoyl)-N-hydroxy-2,3,4,5-tetrahydrobenzo[f][1,4]oxazepine-8-carboxamide]
100 to 500 | CC(C)(C(=O)N1CCOc2cc(C(=O)NO)ccc2C1)C1CCCCC1 [4-(2-cyclohexyl-2-methylpropanoyl)-N-hydroxy-2,3,4,5-tetrahydrobenzo[f][1,4]oxazepine-8-carboxamide]
> 500 | O=C(NO)c1ccc2c(c1)OCCN(C(=O)C(c1ccccc1)C1CCCCC1)C2 (stereo not shown) [4-(2-cyclohexyl-2-phenylacetyl)-N-hydroxy-2,3,4,5-tetrahydrobenzo[f][1,4]oxazepine-8-carboxamide]
≤ 100 | O=C(NO)c1ccc2c(c1)OCCN(C(=O)CC1CC1)C2 [4-(2-cyclopropylacetyl)-N-hydroxy-2,3,4,5-tetrahydrobenzo[f][1,4]oxazepine-8-carboxamide]
100 to 500 | O=C(NO)c1ccc2c(c1)OCCN(C(=O)C1CC(F)(F)C1)C2 [4-(3,3-difluorocyclobutane-1-carbonyl)-N-hydroxy-2,3,4,5-tetrahydrobenzo[f][1,4]oxazepine-8-carboxamide]
≤ 100 | O=C(NO)c1ccc2c(c1)OCCN(C(=O)C1CCC(F)(F)C1)C2 (stereo not shown) [4-(3,3-difluorocyclopentane-1-carbonyl)-N-hydroxy-2,3,4,5-tetrahydrobenzo[f][1,4]oxazepine-8-carboxamide]
100 to 500 | O=C(NO)c1ccc2c(c1)OCCN(C(=O)c1cc(C(F)(F)F)cc(C(F)(F)F)c1)C2 [4-(3,5-bis(trifluoromethyl)benzoyl)-N-hydroxy-2,3,4,5-tetrahydrobenzo[f][1,4]oxazepine-8-carboxamide]
≤ 100 | CN(C)c1c(C(=O)N2CCOc3cc(C(=O)NO)ccc3C2)sc2ccccc12 [4-(3-(dimethylamino)benzo[b]thiophene-2-carbonyl)-N-hydroxy-2,3,4,5-tetrahydrobenzo[f][1,4]oxazepine-8-carboxamide]
≤ 100 | CCC1(C(=O)N2CCOc3cc(C(=O)NO)ccc3C2)COC1 [4-(3-ethyloxetane-3-carbonyl)-N-hydroxy-2,3,4,5-tetrahydrobenzo[f][1,4]oxazepine-8-carboxamide]
100 to 500 | O=C(NO)c1ccc2c(c1)OCCN(C(=O)C1CCC(F)(F)CC1)C2 [4-(4,4-difluorocyclohexane-1-carbonyl)-N-hydroxy-2,3,4,5-tetrahydrobenzo[f][1,4]oxazepine-8-carboxamide]
100 to 500 | O=C(NO)c1ccc2c(c1)OCCN(C(=O)c1ccc(OC(F)F)cc1)C2 [4-(4-(difluoromethoxy)benzoyl)-N-hydroxy-2,3,4,5-tetrahydrobenzo[f][1,4]oxazepine-8-carboxamide]

SMILES | IC50 [nM]
CC(C)(C)OC(C(=O)N1CCOc2cc(C(=O)NO)ccc2C1)c1ccccc1 (stereo not shown) [4-(2-(tert-butoxy)-2-phenylacetyl)-N-hydroxy-2,3,4,5-tetrahydrobenzo[f][1,4]oxazepine-8-carboxamide] | 100 to 500
O=C(NO)c1ccc2c(c1)OCCN(C(=O)C(O)(c1ccccc1)C1CCCC1)C2 (stereo not shown) [4-(2-cyclopentyl-2-hydroxy-2-phenylacetyl)-N-hydroxy-2,3,4,5-tetrahydrobenzo[f][1,4]oxazepine-8-carboxamide] | > 500
